Data as given in patent US9295682B2, “Adjuvant immunotherapy for the preventive, curative or palliative treatment of chronic systemic diseases such as cancer, of clinical manifestations associated with diseases like cachexia and correction of adverse effects of drugs such as immunosuppression, neutropenia and lymphopenia, comprising …” (priority 2009, dated 2016).
Several values for one entry are separate records, joined by “and”; a condition that tells them apart may be missing. Equal values may be shown once.

Key:
hTLR8 = molecular target: T1, hTLR8 (Homo sapiens, UniProt Q9NR97); experiment: Toll-like receptor binding/stimulation, HEK293 cells expressing hTLR8; assay type: cell-based; conditions: CL075 1 μg/mL
T1 construct: expressed in transfected cells; host or cells: HEK293 (293/hTLR8)
T1 sequence (Q9NR97 27-1041): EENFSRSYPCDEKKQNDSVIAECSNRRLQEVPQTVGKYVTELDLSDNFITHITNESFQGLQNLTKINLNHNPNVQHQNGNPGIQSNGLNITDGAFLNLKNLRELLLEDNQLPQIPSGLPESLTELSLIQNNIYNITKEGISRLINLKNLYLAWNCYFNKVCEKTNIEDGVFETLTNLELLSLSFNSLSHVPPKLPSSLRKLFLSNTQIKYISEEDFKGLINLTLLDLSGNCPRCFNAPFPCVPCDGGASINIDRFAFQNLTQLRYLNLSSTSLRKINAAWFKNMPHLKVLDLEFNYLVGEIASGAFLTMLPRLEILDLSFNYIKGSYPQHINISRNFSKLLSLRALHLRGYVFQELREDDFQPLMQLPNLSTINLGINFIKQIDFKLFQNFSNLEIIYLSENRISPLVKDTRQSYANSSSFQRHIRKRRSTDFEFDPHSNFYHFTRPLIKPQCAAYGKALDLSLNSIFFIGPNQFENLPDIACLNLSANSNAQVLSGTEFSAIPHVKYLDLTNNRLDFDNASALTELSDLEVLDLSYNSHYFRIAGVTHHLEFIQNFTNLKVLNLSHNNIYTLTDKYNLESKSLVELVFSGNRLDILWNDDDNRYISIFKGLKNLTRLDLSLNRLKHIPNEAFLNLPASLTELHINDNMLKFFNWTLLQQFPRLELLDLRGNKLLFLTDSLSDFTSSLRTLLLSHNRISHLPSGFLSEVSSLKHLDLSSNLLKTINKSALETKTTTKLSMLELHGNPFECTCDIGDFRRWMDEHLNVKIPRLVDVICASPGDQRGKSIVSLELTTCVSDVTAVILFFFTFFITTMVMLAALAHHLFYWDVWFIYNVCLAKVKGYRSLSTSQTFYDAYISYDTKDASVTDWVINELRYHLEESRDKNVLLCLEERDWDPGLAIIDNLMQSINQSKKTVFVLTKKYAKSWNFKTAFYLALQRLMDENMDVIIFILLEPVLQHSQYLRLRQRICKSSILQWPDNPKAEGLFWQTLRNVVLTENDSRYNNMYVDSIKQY
Procedure: (§1) Samples in three concentrations (0.5 μg/mL, 5 μg/mL, and 50 μg/mL) of the biological response modifier (proteic aggregate of ammonium and magnesium phospholinoleate-palmitoleate anhydride) were dissolved in dimethylsulfoxide (DMSO at 1%) at the concentration of 1% and incubated with 293 TLR cells (HEK293 cells) in microplates, in duplicate, for 20 hours.
(§2) Standard compounds, that is, ligands known for TLR 3 to TLR9 in predetermined concentrations were also incubated in microplates with 293 TLR cells (HEK293 cells) for 20 hours.
(§3) Subsequently, absorbance readings were taken of the microplates […] at 650 nm using a Beckman Coulter AD 340C Absorbance Detector device with three concentrations of the biological response modifier (proteic aggregate of ammonium and magnesium phospholinoleate-palmitoleate anhydride) incubated with the HEK293 cells and readings were also taken of the microplates incubated with the same cells and the control substances, for comparative assessment of the percentage of binding of the aforementioned compounds to toll-like receptors expressed in HEK293 cells.

NF-κB Control cells = experiment: Toll-like receptor screening, NF-κB control cells; assay type: cell-based; conditions: TNFα 100 ng/ml
Procedure: as §1, §2, §3

hTLR9 = molecular target: T2, hTLR9 (Homo sapiens, UniProt Q9NR96); experiment: Toll-like receptor binding/stimulation, HEK293 cells expressing hTLR9; assay type: cell-based; conditions: CpG ODN 2006 1 μg/mL
T2 construct: expressed in transfected cells; host or cells: HEK293 (293/hTLR9)
T2 sequence (Q9NR96 26-1032): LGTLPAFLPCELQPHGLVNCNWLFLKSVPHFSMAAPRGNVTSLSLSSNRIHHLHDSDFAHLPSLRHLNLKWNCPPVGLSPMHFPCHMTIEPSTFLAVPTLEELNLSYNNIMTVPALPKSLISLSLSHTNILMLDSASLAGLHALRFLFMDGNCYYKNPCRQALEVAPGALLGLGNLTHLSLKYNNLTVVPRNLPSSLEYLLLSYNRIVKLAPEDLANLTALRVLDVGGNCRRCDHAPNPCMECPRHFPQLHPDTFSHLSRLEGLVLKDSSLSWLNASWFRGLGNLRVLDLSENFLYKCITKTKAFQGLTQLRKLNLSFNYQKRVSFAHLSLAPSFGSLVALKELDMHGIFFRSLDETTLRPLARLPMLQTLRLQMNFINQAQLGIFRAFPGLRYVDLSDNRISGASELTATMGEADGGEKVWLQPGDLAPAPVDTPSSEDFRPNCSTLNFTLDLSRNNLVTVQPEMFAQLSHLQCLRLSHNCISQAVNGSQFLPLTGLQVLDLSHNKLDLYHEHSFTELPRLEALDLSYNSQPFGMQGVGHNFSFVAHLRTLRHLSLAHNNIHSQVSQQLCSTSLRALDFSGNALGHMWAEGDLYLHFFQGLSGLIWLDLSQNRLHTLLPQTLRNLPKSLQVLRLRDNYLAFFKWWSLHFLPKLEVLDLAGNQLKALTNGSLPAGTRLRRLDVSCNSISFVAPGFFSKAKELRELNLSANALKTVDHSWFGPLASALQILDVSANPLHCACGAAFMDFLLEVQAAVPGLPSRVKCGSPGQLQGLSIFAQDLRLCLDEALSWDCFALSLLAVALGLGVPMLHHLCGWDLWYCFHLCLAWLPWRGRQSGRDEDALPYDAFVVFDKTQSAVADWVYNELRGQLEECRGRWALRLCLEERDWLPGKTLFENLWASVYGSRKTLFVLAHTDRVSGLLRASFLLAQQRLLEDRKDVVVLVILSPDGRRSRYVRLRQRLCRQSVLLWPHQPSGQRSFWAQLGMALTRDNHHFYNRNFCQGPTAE
Procedure: as §1, §2, §3

hTLR7 = molecular target: T3, hTLR7 (Homo sapiens, UniProt Q9NYK1); experiment: Toll-like receptor binding/stimulation, HEK293 cells expressing hTLR7; assay type: cell-based; conditions: CL097 1 μg/mL
T3 construct: expressed in transfected cells; host or cells: HEK293 (293/hTLR7)
T3 sequence (Q9NYK1 27-1049): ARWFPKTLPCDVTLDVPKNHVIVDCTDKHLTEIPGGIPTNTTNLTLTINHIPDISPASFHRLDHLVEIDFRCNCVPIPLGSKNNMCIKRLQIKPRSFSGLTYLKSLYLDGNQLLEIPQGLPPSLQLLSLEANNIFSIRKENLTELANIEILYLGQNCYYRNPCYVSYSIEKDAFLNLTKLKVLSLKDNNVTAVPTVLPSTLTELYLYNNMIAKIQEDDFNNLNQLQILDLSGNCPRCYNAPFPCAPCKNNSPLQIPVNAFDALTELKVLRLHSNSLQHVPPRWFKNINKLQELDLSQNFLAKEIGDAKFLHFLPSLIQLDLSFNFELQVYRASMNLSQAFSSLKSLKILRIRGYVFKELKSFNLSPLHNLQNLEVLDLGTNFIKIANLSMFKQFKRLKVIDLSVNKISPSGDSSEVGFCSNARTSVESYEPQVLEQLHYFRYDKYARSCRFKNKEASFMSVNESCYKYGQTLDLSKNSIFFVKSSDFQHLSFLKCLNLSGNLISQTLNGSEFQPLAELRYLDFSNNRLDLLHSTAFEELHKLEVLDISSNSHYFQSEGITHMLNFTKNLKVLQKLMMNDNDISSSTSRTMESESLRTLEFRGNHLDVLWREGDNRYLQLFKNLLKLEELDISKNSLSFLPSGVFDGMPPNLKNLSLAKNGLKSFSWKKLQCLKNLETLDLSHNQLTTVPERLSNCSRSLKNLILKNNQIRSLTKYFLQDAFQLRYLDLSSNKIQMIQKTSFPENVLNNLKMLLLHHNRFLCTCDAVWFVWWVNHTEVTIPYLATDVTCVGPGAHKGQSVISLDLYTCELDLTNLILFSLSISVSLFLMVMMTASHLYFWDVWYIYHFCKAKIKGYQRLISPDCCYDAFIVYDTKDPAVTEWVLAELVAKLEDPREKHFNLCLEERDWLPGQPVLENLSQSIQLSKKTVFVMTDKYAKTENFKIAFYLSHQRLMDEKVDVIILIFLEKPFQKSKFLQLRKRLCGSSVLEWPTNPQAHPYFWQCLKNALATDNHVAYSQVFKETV
Procedure: as §1, §2, §3

metastatic melanoma = conditions: high doses of interferon-alpha alone; cited from earlier work
hTLR3 = molecular target: T4, hTLR3 (Homo sapiens, UniProt O15455); experiment: Toll-like receptor binding/stimulation, HEK293 cells expressing hTLR3; assay type: cell-based; conditions: Poly (I: C) 1 μg/mL
T4 construct: expressed in transfected cells; host or cells: HEK293 (293/hTLR3)
T4 sequence (O15455 24-904): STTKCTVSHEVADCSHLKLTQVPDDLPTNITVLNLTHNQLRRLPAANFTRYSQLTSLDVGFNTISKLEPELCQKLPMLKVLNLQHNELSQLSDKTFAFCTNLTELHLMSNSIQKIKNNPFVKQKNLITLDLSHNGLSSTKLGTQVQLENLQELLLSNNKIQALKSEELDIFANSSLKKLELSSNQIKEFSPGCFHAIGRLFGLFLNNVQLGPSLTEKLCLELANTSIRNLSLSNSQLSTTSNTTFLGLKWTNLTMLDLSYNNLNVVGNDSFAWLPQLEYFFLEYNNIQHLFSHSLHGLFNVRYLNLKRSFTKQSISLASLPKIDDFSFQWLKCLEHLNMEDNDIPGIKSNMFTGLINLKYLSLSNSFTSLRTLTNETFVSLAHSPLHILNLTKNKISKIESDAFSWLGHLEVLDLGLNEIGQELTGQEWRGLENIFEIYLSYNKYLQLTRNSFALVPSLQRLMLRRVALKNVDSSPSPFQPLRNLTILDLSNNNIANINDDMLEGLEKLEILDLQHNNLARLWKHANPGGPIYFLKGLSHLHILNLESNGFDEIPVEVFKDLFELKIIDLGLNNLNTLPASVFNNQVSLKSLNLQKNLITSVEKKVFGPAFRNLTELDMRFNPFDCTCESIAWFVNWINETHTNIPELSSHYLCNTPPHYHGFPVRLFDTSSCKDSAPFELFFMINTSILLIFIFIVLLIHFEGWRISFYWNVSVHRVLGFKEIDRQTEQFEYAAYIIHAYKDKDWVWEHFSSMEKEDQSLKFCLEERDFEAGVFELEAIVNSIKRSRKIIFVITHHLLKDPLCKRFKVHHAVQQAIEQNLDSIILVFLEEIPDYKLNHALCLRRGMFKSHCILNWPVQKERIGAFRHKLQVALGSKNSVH
Procedure: as §1, §2, §3

hTLR5 = hTLR5 (Homo sapiens, UniProt O60602); experiment: Toll-like receptor binding/stimulation, HEK293 cells expressing hTLR5; assay type: cell-based; conditions: S. typhimurium flagellin 100 ng/ml
hTLR5, sequence (O60602 21-858): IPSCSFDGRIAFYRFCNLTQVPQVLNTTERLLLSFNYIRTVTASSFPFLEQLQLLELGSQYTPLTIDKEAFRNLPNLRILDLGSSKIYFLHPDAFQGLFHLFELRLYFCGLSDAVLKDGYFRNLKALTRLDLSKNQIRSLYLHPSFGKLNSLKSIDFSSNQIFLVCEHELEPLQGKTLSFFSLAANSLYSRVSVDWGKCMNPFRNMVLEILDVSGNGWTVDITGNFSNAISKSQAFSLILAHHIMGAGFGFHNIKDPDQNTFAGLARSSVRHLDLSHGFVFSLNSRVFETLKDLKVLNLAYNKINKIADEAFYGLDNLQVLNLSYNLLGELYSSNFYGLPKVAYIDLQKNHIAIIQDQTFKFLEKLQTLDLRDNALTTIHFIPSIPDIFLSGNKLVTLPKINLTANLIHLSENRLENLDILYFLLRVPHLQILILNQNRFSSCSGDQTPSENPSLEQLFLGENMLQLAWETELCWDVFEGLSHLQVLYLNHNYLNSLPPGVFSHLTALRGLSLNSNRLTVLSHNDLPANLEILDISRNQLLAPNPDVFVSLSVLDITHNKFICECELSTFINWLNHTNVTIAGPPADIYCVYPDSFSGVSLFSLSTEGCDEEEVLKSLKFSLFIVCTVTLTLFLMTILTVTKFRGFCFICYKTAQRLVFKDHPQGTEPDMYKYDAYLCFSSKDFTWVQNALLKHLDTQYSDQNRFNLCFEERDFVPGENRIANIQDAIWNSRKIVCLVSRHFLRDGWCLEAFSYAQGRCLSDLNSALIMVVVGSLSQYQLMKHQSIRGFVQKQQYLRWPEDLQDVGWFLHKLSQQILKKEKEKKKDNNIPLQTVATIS
Procedure: Subsequently, absorbance readings were taken of the microplates by fluorescence at 650 nm using a Beckman Coulter AD 340C Absorbance Detector device with three concentrations of the biological response modifier (proteic aggregate of ammonium and magnesium phospholinoleate-palmitoleate anhydride) incubated with the HEK293 cells and readings were also taken of the microplates incubated with the same cells and the control substances, for comparative assessment of the percentage of binding of the aforementioned compounds to toll-like receptors expressed in HEK293 cells.

CCCc1nc2c(N)nc3ccccc3c2s1 [CL075]
OD (650 nm), 293/hTLR8 cells, Controls+ (hTLR8; 20 h, screening 1 and 2): 3.313 OD (650 nm) and 3.338 OD (650 nm)
% ligands (% bindings), 293/hTLR8, Controls (hTLR8; reference): 100%

TNFα
OD (650 nm), Cells NF-κB Controls, Controls+ (NF-κB Control cells; 20 h, screening 1 and 2): 2.221 OD (650 nm) and 2.042 OD (650 nm)
% ligands (% bindings), Cell NF-κB Controls, Controls (NF-κB Control cells; reference): 100%

CpG ODN 2006
OD (650 nm), 293/hTLR9 cells, Controls+ (hTLR9; 20 h, screening 1 and 2): 2.582 OD (650 nm) and 2.519 OD (650 nm)
% ligands (% bindings), 293/hTLR9, Controls (hTLR9; reference): 100%

CCOCc1nc2c([nH]1)c(N)nc1ccccc12 [CL097]
OD (650 nm), 293/hTLR7 cells, Controls+ (hTLR7; 20 h, screening 1 and 2): 3.222 OD (650 nm) and 3.359 OD (650 nm)
% ligands (% bindings), 293/hTLR7, Controls (hTLR7; reference): 100%

interferon-alpha
response rate (metastatic melanoma): around 20%

Poly (I: C)
OD (650 nm), 293/hTLR3 cells, Controls+ (hTLR3; 20 h, screening 1 and 2): 3.287 OD (650 nm) and 3.440 OD (650 nm)
% ligands (% bindings), 293/hTLR3, Controls (hTLR3; reference): 100%

B1: S. typhimurium flagellin: TLR5 control ligand (protein, UniProt P06179 2-495, looked up)
Flagellin: AQVINTNSLSLLTQNNLNKSQSALGTAIERLSSGLRINSAKDDAAGQAIANRFTANIKGLTQASRNANDGISIAQTTEGALNEINNNLQRVRELAVQSANSTNSQSDLDSIQAEITQRLNEIDRVSGQTQFNGVKVLAQDNTLTIQVGANDGETIDIDLKQINSQTLGLDTLNVQQKYKVSDTAATVTGYADTTIALDNSTFKASATGLGGTDQKIDGDLKFDDTTGKYYAKVTVTGGTGKDGYYEVSVDKTNGEVTLAGGATSPLTGGLPATATEDVKNVQVANADLTEAKAALTAAGVTGTASVVKMSYTDNNGKTIDGGLAVKVGDDYYSATQNKDGSISINTTKYTADDGTSKTALNKLGGADGKTEVVSIGGKTYAASKAEGHNFKAQPDLAEAAATTTENPLQKIDAALAQVDTLRSDLGAVQNRFNSAITNLGNTVNNLTSARSRIEDSDYATEVSNMSRAQILQQAGTSVLAQANQVPQNVLSLLR
OD (650 nm), 293/hTLR5 cells, Controls+ (hTLR5; 20 h, screening 1 and 2): 3.662 OD (650 nm) and 3.798 OD (650 nm)
% ligands (% bindings), 293/hTLR5, Controls (hTLR5; reference): 100%
